The species named for assay [1] is Rattus norvegicus. The assay is described as follows: Antagonist activity against amylase secretion from rat pancreatic acini. The format is functional, organism-based.
In assay [2] the target is T1, Gastrin/cholecystokinin type B receptor (Rattus norvegicus, UniProt P30553).
T1 sequence (P30553 whole entry): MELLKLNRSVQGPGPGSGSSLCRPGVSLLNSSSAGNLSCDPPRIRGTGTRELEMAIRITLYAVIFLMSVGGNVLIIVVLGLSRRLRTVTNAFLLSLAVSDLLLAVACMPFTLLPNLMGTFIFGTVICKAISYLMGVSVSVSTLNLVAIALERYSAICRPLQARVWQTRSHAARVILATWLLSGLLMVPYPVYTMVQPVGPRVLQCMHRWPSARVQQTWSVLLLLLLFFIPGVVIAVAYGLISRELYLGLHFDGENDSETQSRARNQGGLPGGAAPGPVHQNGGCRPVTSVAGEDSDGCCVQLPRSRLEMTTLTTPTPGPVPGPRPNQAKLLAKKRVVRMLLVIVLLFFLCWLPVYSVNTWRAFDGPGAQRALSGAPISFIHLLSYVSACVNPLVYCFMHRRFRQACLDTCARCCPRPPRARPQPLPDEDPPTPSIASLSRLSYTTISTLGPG
The experiment in a line: In vitro binding affinity against Cholecystokinin type B receptor of rat pancreatic acini.

Assay [3] is filed under the species Rattus norvegicus. The assay is described as follows: The compound was tested for its ability to stimulate amylase secretion from rat pancreatic acini. The format is functional, organism-based.

Structures are written as SMILES.

On to `CCCC[C@H](NC(=O)[C@H](Cc1ccc(OS(=O)(=O)O)cc1)NC(=O)OC(C)(C)C)C(=O)NCC(=O)N[C@H](Cc1c[nH]c2ccccc12)C(=O)N[C@@H](CCCC)C(=O)N[C@@H](CC(=O)O)C(=O)N(C)CCc1ccccc1`, for which, in the assay listed under Rattus norvegicus [1], it took 26000 nM to reach half-maximal inhibition (IC50).

With `CCCC[C@H](NC(=O)C(Cc1c[nH]c2ccccc12)NC(=O)CNC(=O)[C@H](CCCC)NC(=O)[C@H](Cc1ccc(OS(=O)(=O)O)cc1)NC(=O)OC(C)(C)C)C(=O)N[C@@H](CC(=O)O)C(=O)NCCc1ccccc1` (single isomer, unassigned), the IC50 (as a rule, the point on the concentration scale where inhibition reaches its midpoint) in assay [2] came to 48 nM. Moreover, the EC50 (commonly the concentration giving half of the maximal effect) in the assay listed under Rattus norvegicus [3] came to 70 nM.

As to `CCCC[C@H](NC(=O)[C@H](Cc1ccc(OS(=O)(=O)O)cc1)NC(=O)OC(C)(C)C)C(=O)NCC(=O)N[C@H](Cc1c[nH]c2ccccc12)C(=O)N[C@@H](CCCC)C(=O)N[C@@H](CC(=O)O)C(=O)NCC(c1ccccc1)c1ccccc1`, a half-maximal effect in the assay listed under Rattus norvegicus [3] (Rattus norvegicus) (EC50) was put at 9300 nM. This counts as single-digit micromolar.

Turning to `CCCC[C@H](NC(=O)[C@H](Cc1ccc(OS(=O)(=O)O)cc1)NC(=O)OC(C)(C)C)C(=O)NCC(=O)N[C@H](Cc1c[nH]c2ccccc12)C(=O)N[C@@H](CCCC)C(=O)N[C@@H](CC(=O)O)C(=O)NC(Cc1ccccc1)Cc1ccccc1`, in the assay listed under Rattus norvegicus [3] (Rattus norvegicus), a half-maximal response (EC50) required 86000 nM.

`CCCC[C@H](NC(=O)[C@H](Cc1ccc(OS(=O)(=O)O)cc1)NC(=O)OC(C)(C)C)C(=O)NCC(=O)N[C@@H](Cc1c[nH]c2ccccc12)C(=O)N[C@@H](CCCC)C(=O)N[C@@H](CC(=O)O)C(=O)NC(Cc1ccccc1)Cc1ccccc1` returned an EC50 in the assay listed under Rattus norvegicus [3] (Rattus norvegicus) of 700 nM. Against the preceding compound, the EC50 is about 120-fold lower.

With `CCCC[C@H](NC(=O)[C@H](Cc1ccc(OS(=O)(=O)O)cc1)NC(=O)OC(C)(C)C)C(=O)NCC(=O)N[C@@H](Cc1c[nH]c2ccccc12)C(=O)N[C@@H](CCCC)C(=O)N[C@@H](CC(=O)O)C(=O)NCC(c1ccccc1)c1ccccc1`, the EC50 in the assay filed under Rattus norvegicus [3] (Rattus norvegicus) turned out to be 32 nM.

For the compound `CCCC[C@H](NC(=O)[C@H](Cc1ccc(OS(=O)(=O)O)cc1)NC(=O)OC(C)(C)C)C(=O)NCC(=O)N[C@@H](Cc1c[nH]c2ccccc12)C(=O)N[C@@H](CCCC)C(=O)N[C@@H](CC(=O)O)C(=O)NCCc1ccccc1`, the IC50 in assay [2] was determined as 100 nM. Besides, a half-maximal response in the assay listed under Rattus norvegicus [3] (EC50) required 30 nM.

In the case of `CCCC[C@H](NC(=O)[C@H](Cc1ccc(OS(=O)(=O)O)cc1)NC(=O)OC(C)(C)C)C(=O)NCC(=O)N[C@H](Cc1c[nH]c2ccccc12)C(=O)N[C@@H](CCCC)C(=O)N[C@@H](CC(=O)O)C(=O)NCCc1ccccc1`, the results for the IC50 (in assay [2]; in the assay listed under Rattus norvegicus [1]) were 500 nM and 30000 nM, respectively.

These data come from ChEMBL document CHEMBL1126469, “On the significance of the C-terminal primary amide in cholecystokinin” (Bioorg Med Chem Lett, 1993).
